Consider one molecule from patent US20070027127A1, “Treatment of inflammatory oral diseases with a combination of inhibitors of TNF-alpha and immunosuppressive agents” (priority 2000, published 2007).

The assay relates to major RAS (recurrent aphthous stomatitis) mouth ulcers. The assay is described as follows: Clinical example: treatment of a human patient with longstanding major RAS. It counts as in vivo. As for the experimental part: There follows a description of the successful treatment of a human patient according to the invention.
The patient was a healthy person who had longstanding major RAS. The ulcers were located throughout the patient's mouth and oropharynx. […] The patient, prior to this visit, had been treated with numerous forms of conventional therapy, including systemic steroids and other pharmaceutical agents. All treatments had failed.
The patient was treated according to the invention as follows. The patient was given PTX tablets (one 400 mg tablet per day), combined with a rinse of the topical steroid DECADRON®.

For `CC(=O)CCCCn1c(=O)c2c(ncn2C)n(C)c1=O` [PTX, 3,7-Dihydro-3,7-dimethyl-1-(5-oxohexyl)-1H-purine-2,6-dione], for the setting “approximately six months after initial treatment with PTX tablets plus DECADRON® rinse, then topical DECADRON® rinse on individual lesions”, the “Mouth ulcer status reported by the patient” value is recorded as “completely without mouth ulcers for the first time in eight years”. Moreover, the “Resolution of the patient's major lesions” value (one patient, major RAS, PTX tablets (one 400 mg tablet per day) combined with a DECADRON® rinse, prior conventional therapies failed) is recorded as “completely resolved all of the patient's major lesions”.
